From patent US20160316732A1, “CONTROL AND CHARACTERIZATION OF PSYCHOTIC STATES” (priority 2010, published 2016)

Tests used:
[1] = system: layer V pyramidal neurons; experiment: Responses of layer V pyramidal neurons to hyperpolarizing/depolarizing current pulses (activity-dependent depolarization); assay type: cell-based, Thy1::ChR2 transgenic mice; settings: for cells in which the activity-dependent depolarization and related phenomena were elicited: 5 μM (−) Quinpirole or 10 μM quinpirole, pooled; for effect on PCP-elicited activity-dependent depolarization and afterdepolarization: n=2 cells
Protocol: Electrophysiological recordings monitored the cellular responses of the layer V pyramidal neurons to in vitro light stimulation when under the pharmacological conditions or treatments.
Brain slices isolated from Thy1::ChR2 transgenic mice underwent direct current stimulation and a layer V pyramidal neuron was monitored by electrophysiological recordings for cellular responses to depolarizing current pulses in the absence or presence of 5 μM PCP.

mice = experiment: Social exploration / social behavior in mice; assay type: in vivo; settings: PCP 5 mg/kg alone; FIG. 4C bottom
[2] = system: layer V pyramidal neurons; experiment: Responses of layer V pyramidal neurons to light flashes (ChR2 stimulation) in prefrontal slices; assay type: cell-based, Thy1::ChR2 transgenic mice
[3] = system: layer V pyramidal neurons; experiment: as above; assay type: cell-based, Thy1::ChR2 transgenic mice; settings: for spiking in response to ChR2 stimulation: p<0.001 vs control; for spikes at short interspike intervals: quinpirole, or haloperidol or sulpiride, FIG. 2E, n=4 cells per group
Protocol: We used prefrontal slices from Thy1::ChR2 mice to study network activity evoked by light. Brain slices isolated from Thy1::ChR2 transgenic mice underwent in vitro light stimulation and a layer V pyramidal neuron was monitored by electrophysiological recordings for cellular responses to trains of light flashes (470 nm, 1 msec) in the absence of a D2 agonist (control) or presence a D2 agonist (20 μM quinpirole). The brain slice was subsequently washed to remove the quinpirole and treated with either 0.2-2 μM haloperidol or 5 μM sulpiride, both of which are known D2 antagonists. The spike rate of the layer V pyramidal neurons and the amount of information transmitted by the spike rate was quantified as well as the number of spikes as a function of interspike interval.

[4] = system: layer V pyramidal neurons; experiment: Whole-cell voltage-clamp of ion channel currents mediating the activity-dependent depolarization; assay type: cell-based, mice
From the text: We next sought to identify possible ion channel currents mediating the activity-dependent depolarization, in whole-cell voltage-clamp.

[5] = cells with prominent sag and rebound afterdepolarization
[6] = haloperidol (0.2-2 μM) or sulpiride (5 μM), pooled group
[7] = haloperidol (0.2-2 μM) or sulpiride (5 μM), pooled group, p<0.01 vs control

Question: Which “cells in which the activity-dependent depolarization and related phenomena were elicited” value [1, 5] does the source give for CCCN1CCC[C@@H]2Cc3n[nH]cc3C[C@H]21 [(−) Quinpirole] here?
Answer: 8/10

Question: For c1ccc(C2(N3CCCCC3)CCCCC2)cc1 [PCP, phencyclidine], which social exploration (mice) is on record?
Answer: impairs social exploration

Question: And the “response to depolarizing current pulses” value ([1]; PCP 5 μM, FIG. 4A)?
Answer: exhibits an afterdepolarization and persistent firing

Question: What about the “cells with activity-dependent depolarization and afterdepolarization outlasting direct stimulation” value ([1]; PCP 5 μM, all layer V pyramidal neurons recorded) of the same molecule?
Answer: 6/12

Question: And the “cells with activity-dependent depolarization” value ([1]; PCP 5 μM, neurons with prominent sag and rebound afterdepolarization)?
Answer: 6/9

Question: And the “cells with activity-dependent depolarization” value ([1]; PCP 5 μM, neurons without prominent sag and rebound afterdepolarization)?
Answer: 0/3

Question: What about the “wide action potentials (possible dendritic Ca2+ spikes)” value ([1]; PCP, FIG. 4A) of the same molecule?
Answer: in some cases found to elicit wide action potentials

Question: And the “spiking at short interspike intervals during trains of light pulses” value ([2]; PCP, Thy1::ChR2 cortical slices)?
Answer: suppressed spiking at short interspike intervals

Question: O=C(CCCN1CCC(O)(c2ccc(Cl)cc2)CC1)c1ccc(F)cc1 [haloperidol] was tested. Which “effect on activity-dependent depolarization present in control conditions (before quinpirole)” value ([1]; haloperidol 0.2-2 μM, n=3) did it give?
Answer: convert bistability into a more modest afterdepolarization, or block the activity dependent depolarization altogether

Question: What about the “block of the quinpirole activity-dependent depolarization” value ([1]; haloperidol 0.2-10 μM) of the same molecule?
Answer: 9/9

Question: And the “quinpirole-elicited prolonged depolarization after washing out quinpirole” value ([3]; haloperidol 1 μM, FIG. 2B)?
Answer: abolished

Question: And the “spiking in response to ChR2 stimulation” value [3, 6]?
Answer: least

Question: What about the “amount of information the spike rate transmitted about the rate of light flashes” value [3, 7] of the same molecule?
Answer: lowest

Question: And the “spikes at short interspike intervals” value [3]?
Answer: loss of spikes at short interspike intervals

Question: What about the “reversal of quinpirole-elicited prolonged depolarization” value ([2]; 0.2-10 μM haloperidol, washout of quinpirole and simultaneous application) of the same molecule?
Answer: 9/9

Question: How did the “cells in which the activity-dependent depolarization and related phenomena were elicited” value [1, 5] turn out when CCCN1CCC[C@@H]2Cc3n[nH]cc3C[C@H]21 [quinpirole] was run?
Answer: 8/10

Question: And the “cells exhibiting the activity-dependent depolarization” value ([1]; 20 μM quinpirole, cells with prominent sag and rebound afterdepolarization)?
Answer: 16/17

Question: What about the “cells with bistability having peaks in power spectra between 20 and 40 Hz” value ([1]; quinpirole, FIG. 3F) of the same molecule?
Answer: 4/6

Question: And the “cells exhibiting the activity-dependent depolarization” value ([1]; quinpirole, cells without prominent sag and rebound afterdepolarization)?
Answer: 0/9

Question: And the “cells exhibiting the activity-dependent depolarization” value ([1]; quinpirole, neurons strongly expressing ChR2)?
Answer: 14/18

Question: And the “layer V pyramidal neurons with prolonged depolarization outlasting direct stimulation after high-frequency spiking” value ([3]; quinpirole 20 μM, all layer V pyramidal neurons recorded)?
Answer: 16/26

Question: And the “amount of information the spike rate transmitted about the rate of light flashes” value ([3]; quinpirole 20 μM, compared with control, p<0.05)?
Answer: intermediate

Question: And the “change in responses to trains of light flashes” value ([3]; quinpirole 20 μM, light flashes 470 nm, 1 msec)?
Answer: marked change in the responses

Question: And the “spike afterhyperpolarization (AHP)” value ([3]; quinpirole 20 μM, single 1 msec light flash, FIG. 2F)?
Answer: enhanced the spike afterhyperpolarization

Question: And the “spikes at short interspike intervals” value [3]?
Answer: loss of spikes at short interspike intervals

Question: And the “spike rate in response to ChR2 stimulation” value ([3]; quinpirole, p<0.01 vs control)?
Answer: lower spike rates

Question: What about the “current at −30 mV after a series of 1 msec steps to 0 mV” value ([4]; quinpirole 20 μM) of the same molecule?
Answer: elicited a slowly activating depolarizing current

Question: And the “tail current at −60 mV after a series of 1 msec steps to 0 mV” value ([4]; quinpirole 20 μM)?
Answer: increased a rapidly inactivating tail current

Question: What does the source list for CCN1CCCC1CNC(=O)c1cc(S(N)(=O)=O)ccc1OC (stereo not shown) [sulpiride]?
Answer: block of the quinpirole activity-dependent depolarization ([1]; sulpiride 5 μM): 2/2; effect on PCP-elicited activity-dependent depolarization and afterdepolarization ([1]; sulpiride 5 μM, PCP 5 μM): not blocked; effect on PCP-elicited activity-dependent depolarization and afterdepolarization ([1]; sulpiride 5 μM, PCP 5 μM, listed as sulphide): not reversed; spiking in response to ChR2 stimulation [3, 6]: least; amount of information the spike rate transmitted about the rate of light flashes [3, 7]: lowest; action potential width ([3]; quinpirole + sulpiride 5 μM, FIG. 2F): widened action potentials; spikes at short interspike intervals [3]: loss of spikes at short interspike intervals; effect on quinpirole-elicited currents at −30 mV and −60 mV ([4]; sulpiride 5 μM): blocked; reversal of quinpirole-elicited prolonged depolarization ([2]; 5 μM sulpiride, simultaneous application with quinpirole): 2/2
